# Like-named read-outs stand apart in the source and are kept apart here. Where a SMILES comes first, the peptide text is derived from it. Bridges are numbered along the chain shown (N, C = ends). [ ]: non-standard residue; d: D form. The star is where a group is joined. hPhe(3-Cl-4-CF3) = N[C@@H](CCc1ccc(C(F)(F)F)c(Cl)c1)C(=O)O; NPrPhe(4-CF3) = CCCN[C@@H](Cc1ccc(C(F)(F)F)cc1)C(=O)O; NEtPhe(4-CF3) = CCN[C@@H](Cc1ccc(C(F)(F)F)cc1)C(=O)O; NMeGly(cPent) = CN[C@H](C(=O)O)C1CCCC1; Hyp = O=C(O)[C@@H]1C[C@@H](O)CN1; NMeD = CN[C@@H](CC(=O)O)C(=O)O; NMeL = CN[C@@H](CC(C)C)C(=O)O; Morpholide = C1CN(*)CCO1; NMeA = CN[C@@H](C)C(=O)O; Ac5c = NC1(C(=O)O)CCCC1; Aze = O=C(O)[C@@H]1CCN1; Aib = CC(C)(N)C(=O)O; Sar = CNCC(=O)O
# Legend:
# [1] = molecular target: GDP-bound HRAS wild-type protein (Homo sapiens, UniProt P01112); assay: Binding to HRAS by surface plasmon resonance (SPR), Single Cycle Kinetics; conditions: for HRAS/KRAS (ratio of KD value with respect to GDP-bound HRAS wild-type protein to KD value with respect to KRAS): SPR KD ratio HRAS/KRAS, class symbols; for HRAS/KRAS (ratio of KD value with respect to HRAS to KD value with respect to KRAS) / HRAS/KRAS (ratio of KD value for HRAS to KD value for KRAS): SPR, GDP-bound HRAS wild-type protein vs GDP-bound KRAS wild-type protein
# Sequence of GDP-bound HRAS wild-type protein (P01112 whole entry): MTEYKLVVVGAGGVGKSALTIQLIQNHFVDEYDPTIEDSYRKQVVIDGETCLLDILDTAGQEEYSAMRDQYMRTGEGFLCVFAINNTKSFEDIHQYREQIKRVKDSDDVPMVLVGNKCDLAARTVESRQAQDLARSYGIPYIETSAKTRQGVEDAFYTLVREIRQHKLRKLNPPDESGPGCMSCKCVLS
# [2] = molecular target: GDP-bound KRAS wild-type protein (Homo sapiens, UniProt P01116); assay: Binding to KRAS by surface plasmon resonance (SPR), Single Cycle Kinetics; conditions: GDP-bound KRAS wild-type protein, read-out: KRAS KD
# Sequence of GDP-bound KRAS wild-type protein (P01116 whole entry): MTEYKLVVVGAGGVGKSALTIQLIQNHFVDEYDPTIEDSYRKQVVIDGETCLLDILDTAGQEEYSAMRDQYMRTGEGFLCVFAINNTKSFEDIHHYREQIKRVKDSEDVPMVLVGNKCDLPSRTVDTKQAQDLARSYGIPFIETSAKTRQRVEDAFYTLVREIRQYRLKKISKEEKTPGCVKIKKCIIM
# [3] = molecular target: GDP-bound NRAS wild-type protein (Homo sapiens, UniProt P01111); assay: Binding to NRAS by surface plasmon resonance (SPR), Single Cycle Kinetics; conditions: for NRAS/KRAS (ratio of KD value with respect to GDP-bound NRAS wild-type protein to KD value with respect to KRAS): SPR KD ratio NRAS/KRAS, class symbols; for NRAS/KRAS (ratio of KD value with respect to NRAS to KD value with respect to KRAS) / NRAS/KRAS (ratio of KD value for NRAS to KD value for KRAS): SPR, GDP-bound NRAS wild-type protein vs GDP-bound KRAS wild-type protein
# Sequence of GDP-bound NRAS wild-type protein (P01111 whole entry): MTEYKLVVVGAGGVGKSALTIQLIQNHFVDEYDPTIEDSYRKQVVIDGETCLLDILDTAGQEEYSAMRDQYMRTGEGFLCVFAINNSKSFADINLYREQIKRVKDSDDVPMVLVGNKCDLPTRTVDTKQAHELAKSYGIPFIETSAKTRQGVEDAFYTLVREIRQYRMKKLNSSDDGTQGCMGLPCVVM
# [4] = SPR Single Cycle Kinetics, 1:1 binding model
"Kd [2, 4] [nM]","Kd ([2]; SPR, Single Cycle Kinetics) [nM]",SMILES,HRAS/KRAS (ratio of KD value with respect to GDP-bound HRAS wild-type protein to KD value with respect to KRAS) [1],NRAS/KRAS (ratio of KD value with respect to GDP-bound NRAS wild-type protein to KD value with respect to KRAS) [3],HRAS/KRAS (ratio of KD value with respect to HRAS to KD value with respect to KRAS) [1],NRAS/KRAS (ratio of KD value with respect to NRAS to KD value with respect to KRAS) [3],HRAS/KRAS (ratio of KD value for HRAS to KD value for KRAS) [1],NRAS/KRAS (ratio of KD value for NRAS to KD value for KRAS) [3]
0.34,–,CC[C@H](C)[C@@H]1NC(=O)[C@H](CC)N(C)C(=O)C[C@@H](C(=O)N(C)C)N(CC)C(=O)[C@H](C2CCCC2)N(C)C(=O)C2(CCC2)NC(=O)[C@@H]2CCCCN2C(=O)[C@H](CCc2cc(F)c(C(F)(F)F)c(F)c2)NC(=O)CN(C)C(=O)[C@H](Cc2ccc(C(F)(F)F)cc2)N2CCCC[C@@H](C2=O)N(C)C(=O)CN(C)C1=O [PP0661],–,–,B (a compound having 3 or more and less than 10 is denoted as B),C (A compound having a KD ratio of 0.1 or more and less than 3 is denoted as C),–,–
0.12,–,CCO[C@@H]1C[C@H]2C(=O)NC3(CCC3)C(=O)N(C)[C@@H](C3CCCC3)C(=O)N(C)[C@H](C(=O)N(C)C)CC(=O)N(C)[C@@H](Cc3cccnc3)C(=O)N[C@@H]([C@@H](C)CC)C(=O)N(C)CC(=O)N(C)[C@H]3CCCCCN(C3=O)[C@@H](Cc3ccc(C(F)(F)F)cc3)C(=O)N(C)CC(=O)N[C@@H](CCc3cc(F)c(C(F)(F)F)c(F)c3)C(=O)N2C1 [PP0673],–,–,B (a compound having 3 or more and less than 10 is denoted as B),B (a compound having 3 or more and less than 10 is denoted as B),–,–
0.21,–,CCO[C@@H]1C[C@H]2C(=O)NC3(CC(C)(C)C3)C(=O)N(C)[C@@H](C(CC)CC)C(=O)N(C)[C@H](C(=O)N3CCCC3)CC(=O)N(C)[C@H]3CCC/C=C/c4ccc(cc4)C[C@@H](C(=O)N(C)CC(=O)N[C@@H](CCc4ccc(Cl)c(Cl)c4)C(=O)N2C1)N1CC/C=C\C[C@@H](C1=O)N(C)C(=O)CN(C)C(=O)[C@H]([C@@H](C)CC)NC3=O [PP2581],A (a compound having 10 or more and less than 20 is denoted as A),AA (a compound having 20 or more is denoted as AA),–,–,–,–
0.73,–,CCCN1C(=O)[C@@H]2CCN2C(=O)CN(C)C(=O)[C@H]([C@@H](C)CC)NC(=O)[C@H](CC(C)C)N(C)C(=O)C[C@@H](C(=O)N2CCOCC2)NC(=O)[C@H](C2CCCC2)N(C)C(=O)C2(CCCC2)NC(=O)[C@@H]2CCCN2C(=O)[C@H](CCc2ccc(C(F)(F)F)c(Cl)c2)NC(=O)CN(C)C(=O)[C@@H]1Cc1ccc(C(F)(F)F)cc1 [PP0349] ([NMeL]I[Sar][Aze][NPrPhe(4-CF3)][Sar][hPhe(3-Cl-4-CF3)]P[Ac5c][NMeGly(cPent)]D-Morpholide; lactam N-11),–,–,–,–,B (a compound having 3 or more and less than 10 is denoted as B),C (A compound having a KD ratio of 0.1 or more and less than 3 is denoted as C)
–,0.1,CCO[C@@H]1C[C@H]2C(=O)NC3(CC(C)(C)C3)C(=O)N(C)[C@@H](C(CC)CC)C(=O)N(C)[C@H](C(=O)N(C)C)CC(=O)N(C)[C@H]3CCCCCCc4ccc(cc4)C[C@@H](C(=O)N(C)CC(=O)N[C@@H](CCc4ccc(C(F)(F)F)c(OC)c4)C(=O)N2C1)N1CC/C=C\C[C@@H](C1=O)N(C)C(=O)CN(C)C(=O)[C@H]([C@@H](C)CC)NC3=O [PP3032],–,–,–,–,A (a compound having 10 or more and less than 20 is denoted as A),AA (a compound having 20 or more is denoted as AA)
–,0.059,"CCO[C@@H]1C[C@H]2C(=O)NC3(CCCC3)C(=O)N(C)[C@@H](C3CCCC3)C(=O)N(C)[C@H](C(=O)N(C)C)CC(=O)N(C)[C@@H](C)C(=O)N[C@@H]([C@@H](C)CC)C(=O)N(C)CC(=O)N(C)[C@H]3C/C=C\CCN(C3=O)[C@@H](Cc3ccc(C(F)(F)F)cc3)C(=O)N(C)CC(=O)N[C@@H](CCc3cc(F)c(C(F)(F)F)c(F)c3)C(=O)N2C1 [PP1104, (2S,8S,12R,14S,20S,23S,27S,30S,36S,38Z)-20-cyclopentyl-8-[2-[3,5-difluoro-4-(trifluoromethyl)phenyl]ethyl]-12-ethoxy-N,N,4,19,22,26,27,32,35-nonamethyl-30-[(1S)-1-methylpropyl]-3,6,9,15,18,21,25,28,31,34,42-undecaoxo-2-[[4-(trifluoromethyl)phenyl]methyl]spiro[1,4,7,10,16,19,22,26,29,32,35-undecazatricyclo[34.5.1.0^10,14]dotetracont-38-ene-17,1′-cyclopentane]-23-carboxamide]",–,–,–,–,A (a compound having 10 or more and less than 20 is denoted as A),A (a compound having 10 or more and less than 20 is denoted as A)

# Further lines, the molecule ahead of its results:
SMILES,"Kd [2, 4] [nM]","Kd ([2]; SPR, Single Cycle Kinetics) [nM]",HRAS/KRAS (ratio of KD value with respect to GDP-bound HRAS wild-type protein to KD value with respect to KRAS) [1],NRAS/KRAS (ratio of KD value with respect to GDP-bound NRAS wild-type protein to KD value with respect to KRAS) [3],HRAS/KRAS (ratio of KD value with respect to HRAS to KD value with respect to KRAS) [1],NRAS/KRAS (ratio of KD value with respect to NRAS to KD value with respect to KRAS) [3],HRAS/KRAS (ratio of KD value for HRAS to KD value for KRAS) [1],NRAS/KRAS (ratio of KD value for NRAS to KD value for KRAS) [3]
CCC[C@H]1C(=O)N[C@@H]([C@@H](C)CC)C(=O)N(C2CC2)CC(=O)N(C)[C@H]2C/C=C\CCN(C2=O)[C@@H](Cc2ccc(C(F)(F)F)cc2)C(=O)N(C)CC(=O)N[C@@H](CCc2ccc(Cl)c(Cl)c2)C(=O)N2C[C@H](OCC)C[C@H]2C(=O)NC2(CC(C)(C)C2)C(=O)N(C)[C@@H](CC2CCC2)C(=O)N(C)[C@H](C(=O)N(C)C)CC(=O)N1C [PP2819],2.2,–,A (a compound having 10 or more and less than 20 is denoted as A),A (a compound having 10 or more and less than 20 is denoted as A),–,–,–,–
CC[C@H](C)[C@@H]1NC(=O)[C@H](CC(C)C)N(C)C(=O)C[C@@H](C(=O)N2CCOCC2)N(C)C(=O)[C@H](C2CCCC2)N(C)C(=O)C(C)(C)NC(=O)[C@@H]2CCCN2C(=O)[C@H](CCc2ccc(C(F)(F)F)c(Cl)c2)NC(=O)CN(C)C(=O)[C@H](Cc2ccc(C(F)(F)F)cc2)N(CC)C(=O)[C@@H]2CCN2C(=O)[C@H](C)N(C)C1=O [PP0221] ([NMeL]I[NMeA][Aze][NEtPhe(4-CF3)][Sar][hPhe(3-Cl-4-CF3)]P[Aib][NMeGly(cPent)][NMeD]-Morpholide; lactam N-11),0.19,–,–,–,–,–,C (A compound having a KD ratio of 0.1 or more and less than 3 is denoted as C),C (A compound having a KD ratio of 0.1 or more and less than 3 is denoted as C)
CCCN1C(=O)CN(C)C(=O)CN(C)C(=O)[C@H]([C@@H](C)CC)NC(=O)[C@H](CC(C)C)N(C)C(=O)C[C@@H](C(=O)N2CCOCC2)NC(=O)[C@H](C2CCCC2)N(C)C(=O)C2(CCCC2)NC(=O)[C@@H]2C[C@@H](OCC)CN2C(=O)[C@H](CCc2ccc(C(F)(F)F)c(Cl)c2)NC(=O)CN(C)C(=O)[C@@H]1Cc1ccc(C(F)(F)F)cc1 [PP0323] ([NMeL]I[Sar][Sar][NPrPhe(4-CF3)][Sar][hPhe(3-Cl-4-CF3)][Hyp](Et)[Ac5c][NMeGly(cPent)]D-Morpholide; lactam N-11),0.25,–,–,–,–,–,B (a compound having 3 or more and less than 10 is denoted as B),B (a compound having 3 or more and less than 10 is denoted as B)
CCO[C@@H]1C[C@H]2C(=O)NC3(CCC3)C(=O)N(C)[C@@H](C3CCCC3)C(=O)N(C)[C@H](C(=O)N(C)C)CC(=O)N(C)[C@@H](CC)C(=O)N[C@@H]([C@@H](C)CC)C(=O)N(C)CC(=O)N(C)[C@H]3CCCCN(C3=O)[C@@H](Cc3ccc(C(F)(F)F)cc3)C(=O)N(C)CC(=O)N[C@@H](CCc3cc(Cl)c(Cl)c(Cl)c3)C(=O)N2C1 [PP0988],–,0.046,–,–,–,–,B (a compound having 3 or more and less than 10 is denoted as B),C (A compound having a KD ratio of 0.1 or more and less than 3 is denoted as C)
CCO[C@@H]1C[C@H]2C(=O)NC3(CCC3)C(=O)N(C)[C@@H](C3CCCC3)C(=O)N(C)[C@H](C(=O)N(C)C)CC(=O)N(C)[C@@H](COC)C(=O)N[C@@H]([C@@H](C)CC)C(=O)NCC(=O)N(C)[C@H]3CCCCCN(C3=O)[C@@H](Cc3ccc(C(F)(F)F)cc3)C(=O)N(C)CC(=O)N[C@@H](CCc3cc(F)c(C(F)(F)F)c(F)c3)C(=O)N2C1 [PP0859],–,0.31,–,–,–,–,B (a compound having 3 or more and less than 10 is denoted as B),B (a compound having 3 or more and less than 10 is denoted as B)
CCCN(C)C(=O)[C@@H]1CC(=O)N(C)[C@@H](COCC)C(=O)N[C@@H]([C@@H](C)CC)C(=O)N(C)CC(=O)N(C)[C@H]2C/C=C\CCN(C2=O)[C@@H](Cc2ccc(C(F)(F)F)cc2)C(=O)N(C)CC(=O)N[C@@H](CCc2cc(F)c(C(F)(F)F)c(F)c2)C(=O)N2C[C@@H](C)C[C@H]2C(=O)NC2(CC(C)(C)C2)C(=O)N(C)[C@@H](C2CCCC2)C(=O)N1C [PP2041],–,0.19,–,–,–,–,A (a compound having 10 or more and less than 20 is denoted as A),A (a compound having 10 or more and less than 20 is denoted as A)
CCO[C@@H]1C[C@H]2C(=O)NC3(CCC3)C(=O)N(C)[C@@H](C3CCCC3)C(=O)N(C)[C@H](C(=O)N(C)C)CC(=O)N(C)[C@@H](CC3CCC3)C(=O)N[C@@H]([C@@H](C)CC)C(=O)N(C)CC(=O)N(C)[C@H]3CCCCCN(C3=O)[C@@H](Cc3ccc(C(F)(F)F)cc3)C(=O)N(C)CC(=O)N[C@@H](CCc3cc(F)c(C(F)(F)F)c(F)c3)C(=O)N2C1 [PP0668],0.38,–,–,–,B (a compound having 3 or more and less than 10 is denoted as B),B (a compound having 3 or more and less than 10 is denoted as B),–,–

# Reference: patent US20240158446A1, “CYCLIC COMPOUND HAVING SELECTIVE INHIBITORY ACTION ON KRAS OVER HRAS AND NRAS” (CHUGAI SEIYAKU KABUSHIKI KAISHA, priority 2021, published 2024)
